Key:
[1] = Weight change (moisture absorption) under an atmosphere of 25° C. and humidity 66%; assay type: physicochemical; details: humidity 66%; for weight increase due to moisture absorption (in words): up to 24 hours
Procedure: With respect to the crystal of NeuAc sodium salt anhydrate and the noncrystalline amorphous of NeuAc sodium salt acquired in Reference Example 1, the weight change under an atmosphere of 25° C. and humidity 66% was compared, and the results are shown in Table 3.
With respect to the crystal of NeuAc potassium salt anhydrate and the noncrystalline amorphous of NeuAc potassium salt acquired in Reference Example 2, the weight change under an atmosphere of 25° C. and humidity 66% was compared, and the results are shown in Table 10.

[2] = normal temperature; cited from earlier work
[3] = normal temperature / storage; cited from earlier work
[4] = Degree of coloration when stored in a closed system at 60° C. (transmittance T% 430 nm); assay type: physicochemical
Procedure: (§1) With respect to the crystal of NeuAc sodium salt anhydrate and a crystal of known NeuAc dihydrate, the degree of coloration when stored in a closed system at 60° C. was compared, and the results are shown in Table 7. The degree of coloration is expressed by transmittance T % 430 nm=100×10^−A (A=Abs: 430 nm, 1 cm).
as §1, with “potassium” for “sodium”, “14.” for “7.”

[5] = Measurement of degree of solubility in water (HPLC of supernatant); assay type: physicochemical; details: various temperatures, FIG. 5 / FIG. 10, result in words
Procedure: (2) Measurement of Degree of Solubility
A crystal of NeuAc sodium salt anhydrate, a crystal of NeuAc potassium salt anhydrate, or a crystal of known NeuAc dihydrate was added to water adjusted to respective temperatures until each crystal was caused to remain undissolved and after keeping the solution for a sufficient time under stirring, the supernatant containing no crystal was collected and measured for the concentration by using the following HPLC analysis conditions.
Guard column: Shodex SUGAR SH-G ϕ6.0×50 mm
Column: SUGAR SH1011 ϕ8.0×300 mm×2 columns in series
Column temperature: 60° C.
Buffer: an aqueous 0.005 mol/L sulfuric acid solution
Flow velocity: 0.6 mL/min
Detector: UV detector (wavelength: 210 nm)
The degrees of solubility in water of the crystal of NeuAc sodium salt anhydrate obtained above and a crystal of NeuAc dihydrate are illustrated in FIG. 5.
The degrees of solubility in water of the crystal of NeuAc potassium salt anhydrate obtained above and a crystal of NeuAc dihydrate are illustrated in FIG. 10.

[6] = pH of aqueous solution of the crystal at 100 g/L; assay type: physicochemical
Procedure: As for the pH, an aqueous solution at 100 g/L in terms of NeuAc sodium salt was measured.
As for the pH, an aqueous solution at 100 g/L in terms of NeuAc potassium salt was measured.

SMILES | Transmittance T % 430 nm ([4]; elapsed time 0 days, Table 7) [%] | Transmittance T % 430 nm ([4]; elapsed time 0 days, Table 14) [%] | Transmittance T % 430 nm ([4]; elapsed time 3 days, Table 7) [%] | Transmittance T % 430 nm ([4]; elapsed time 3 days, Table 14) [%] | Transmittance T % 430 nm ([4]; elapsed time 6 days, Table 7) [%] | Transmittance T % 430 nm ([4]; elapsed time 6 days, Table 14) [%] | degree of solubility in water compared with crystal of known NeuAc dihydrate [5] | coloration during storage compared with crystal of known NeuAc dihydrate (in words) [4] | storage stability (in words) [3] | also measured
CC(=O)N[C@H]1[C@H]([C@H](O)[C@H](O)CO)OC(O)(C(=O)[O-])C[C@@H]1O.[K+] (some centres unmarked) [Reference Example 2, NeuAc potassium salt, reference compound] |  |  |  |  |  |  |  |  |  | weight increase due to moisture absorption (in words) ([1]; listed as noncrystalline amorphous of NeuAc potassium salt, potassium salt): marked weight increase due to moisture absorption and deliquesced when 24 hours had passed
CC(=O)N[C@H]1[C@H]([C@H](O)[C@H](O)CO)OC(O)(C(=O)O)C[C@@H]1O (some centres unmarked) [Crystal of dihydrate, N-Acetylneuraminic acid, reference compound] | 100.1 | 100.1 | 73.26 | 73.26 | 50.46 | 50.46 |  |  | gradually discolored to dark brown | degree of solubility [2]: about 100 g/L
CC(=O)N[C@H]1[C@H]([C@H](O)[C@H](O)CO)O[C@](O)(C(=O)[O-])C[C@@H]1O.[Na+] [Reference Example 1, NeuAc sodium salt, reference compound] |  |  |  |  |  |  |  |  |  | weight increase due to moisture absorption (in words) ([1]; listed as noncrystalline amorphous of NeuAc sodium salt, sodium salt): marked weight increase due to moisture absorption and deliquesced when 24 hours had passed
CC(=O)N[C@H]1[C@H]([C@H](O)[C@H](O)CO)OC(O)(C(=O)[O-])C[C@@H]1O.O.O.O.[Na+] (some centres unmarked) [NeuAc sodium salt trihydrate] |  |  |  |  |  |  |  |  | high storage stability at normal temperature | 

Second part, led by results:

Transmittance T % 430 nm ([4]; elapsed time 0 days, Table 7) [%] | Transmittance T % 430 nm ([4]; elapsed time 0 days, Table 14) [%] | Transmittance T % 430 nm ([4]; elapsed time 3 days, Table 7) [%] | Transmittance T % 430 nm ([4]; elapsed time 3 days, Table 14) [%] | Transmittance T % 430 nm ([4]; elapsed time 6 days, Table 7) [%] | Transmittance T % 430 nm ([4]; elapsed time 6 days, Table 14) [%] | degree of solubility in water compared with crystal of known NeuAc dihydrate [5] | coloration during storage compared with crystal of known NeuAc dihydrate (in words) [4] | SMILES | storage stability (in words) [3] | also measured
99.98 |  | 100.0 |  | 100.0 |  | excellent solubility | extremely low | CC(=O)N[C@H]1[C@H]([C@H](O)[C@H](O)CO)O[C@](O)(C(=O)[O-])C[C@@H]1O.[Na+] [Crystal of sodium salt, NeuAc sodium salt anhydrate] |  | Rate of Weight Change ([1]; elapsed time 0 h, Table 3): 0.00%; Rate of Weight Change ([1]; elapsed time 3 h, Table 3): −0.04%; Rate of Weight Change ([1]; elapsed time 7 h, Table 3): −0.02%; Rate of Weight Change ([1]; elapsed time 24 h, Table 3): −0.04%; weight increase due to moisture absorption (in words) ([1]; listed as crystal of NeuAc sodium salt anhydrate): a weight increase was not recognized; pH ([6]; aqueous solution at 100 g/L in terms of NeuAc sodium salt, listed as Example 1): 6.74; pH ([6]; aqueous solution at 100 g/L in terms of NeuAc sodium salt, listed as Example 2): 6.8
 | 99.90 |  | 99.73 |  | 99.63 | excellent solubility | extremely low | CC(=O)N[C@H]1[C@H]([C@H](O)[C@H](O)CO)OC(O)(C(=O)[O-])C[C@@H]1O.[K+] (some centres unmarked) [Crystal of potassium salt, NeuAc potassium salt anhydrate] |  | Rate of Weight Change ([1]; elapsed time 0 h, Table 10): 0.00%; Rate of Weight Change ([1]; elapsed time 3 h, Table 10): 0.06%; Rate of Weight Change ([1]; elapsed time 7 h, Table 10): 0.00%; Rate of Weight Change ([1]; elapsed time 24 h, Table 10): −0.06%; weight increase due to moisture absorption (in words) ([1]; listed as crystal of NeuAc potassium salt anhydrate): a weight increase was not recognized; pH ([6]; aqueous solution at 100 g/L in terms of NeuAc potassium salt, listed as Example 4): 6.6; pH ([6]; aqueous solution at 100 g/L in terms of NeuAc potassium salt, listed as Example 5): 6.5

From patent US10005808B2, “Crystal of alkali metal N-acetylneuraminate anhydrate, and process for producing same” (KYOWA HAKKO BIO CO., LTD., priority 2014, dated 2018)
